Entries after “also recorded” stand apart in the source; their conditions may differ. Like-named read-outs stand apart in the source and are kept apart here. Values belong to the compound of their own block, whether it stands above or below them.
Assays:
[1] = Solubility in methanol, ethanol, 95% ethanol; format: physicochemical
Excerpt: Dual solvent systems were used, comprising methanol and ether, by dissolving the salt in a small volume of methanol and then adjusting the solubility by adding ether to the point of slight cloudiness. These samples then remained in the reaction vessel as needed to precipitate.

[2] = Pharmacokinetics of aqueous suspensions in mice; conditions: for Cmax: equimolar dose 10 mg/kg of free base, plasma Compound 1
Procedure: (§1) Blood was sampled with microbleeds frequently to produce the pharmacokinetics curves (AUCs).
(§2) The dosing suspension was analyzed before administration to the animals to ensure that the actual concentration was known.

[3] = Solubility and plasma levels of Compound 1 (general statements); format: physicochemical
Excerpt: There is a significant, unmet need for means to administer Compound 1 to treat diseases or disorders, such as diseases or disorders associated with neuroinflammation. The present disclosure fulfills these and other needs, as evident in reference to the following disclosure.
To improve solubility, attempts to prepare acid addition salts from suitably acidic carboxylic acids (e.g., fumaric acid, maleic acid, citric acid, tartaric acid), standard mineral acids (e.g., hydrobromic acid, sulfuric acid, phosphoric acid), and sulfonic acids (e.g., toluenesulfonic acid, methanesulfonic acid, ethanesulfonic acid, benzenesulfonic acid), were conducted.

[4] = mice; cited from earlier work
[5] = Dissolution behaviour in water; format: physicochemical
Procedure: Pharmaceutically acceptable salts were prepared using tartaric acid, fumaric acid, and phosphoric acid.

[6] = mouse, in vivo, 10 mg/kg
Procedure: as §1, §2

[7] = mice, aqueous suspension, 10 mg/kg of free base
[8] = mice, aqueous suspension, 10 mg/kg of free base, 10 mg/kg

solubility in methanol, ethanol or 95% ethanol [1]: dissolved readily in hot methanol
Compound: CN1CCN(Cc2ccc(-c3cnc4[nH]cc(-c5ccc6[nH]ccc6c5)c4c3)cc2)CC1 [Fumarate, 3-(1H-indol-5-yl)-5-[4-[(4-methyl-1-piperazinyl)methyl]phenyl]-1H-pyrrolo[2,3-b]pyridine]

solubility in methanol, ethanol or 95% ethanol ([1]; listed as Phosphoric Acid): low in methanol | Tmax [2, 7]: 6.00 h | AUClast ([2]; mice, aqueous suspension, 10 mg/kg of free base, 6-hour study, 10 mg/kg): 230 ng·h/mL | Mean plasma concentration at 0.67 hr ([2]; mice, aqueous suspension, 10 mg/kg of free base, 0.67 hr, 10 mg/kg): 2.71 ng/mL | Mean plasma concentration at 1.0 hr [2, 8]: 7.32 ng/mL | Mean plasma concentration at 1.5 hr [2, 8]: 21.9 ng/mL | Mean plasma concentration at 2.0 hr ([2]; mice, aqueous suspension, 10 mg/kg of free base, 2.0 hr, 10 mg/kg): 31.7 ng/mL | Mean plasma concentration at 4.0 hr ([2]; mice, aqueous suspension, 10 mg/kg of free base, 4.0 hr, 10 mg/kg): 48.3 ng/mL | Cmax ([2]; mice, aqueous suspension, 10 mg/kg): 78 ng/mL | concentration at 0.33 h ([2]; mouse, plasma, oral, 10 mg/kg, Mean plasma concentration at 0.33 hr, mice, aqueous suspension, 10 mg/kg of free base, 0.33 hr): 0.679 ng/mL
Compound: CN1CCN(Cc2ccc(-c3cnc4[nH]cc(-c5ccc6[nH]ccc6c5)c4c3)cc2)CC1 [Phosphate, 3-(1H-indol-5-yl)-5-[4-[(4-methyl-1-piperazinyl)methyl]phenyl]-1H-pyrrolo[2,3-b]pyridine]
solubility in methanol, ethanol or 95% ethanol [1]: least soluble in methanol of the three salts tested | exposure compared with free base [2, 7]: superior to the free base in key pharmacokinetic measures

plasma serum levels upon administration without excipients such as DMSO [3]: only low plasma serum levels | Mean plasma concentration at 0.33 hr ([2]; mice, aqueous suspension, 10 mg/kg of free base, 0.33 hr, 10 mg/kg): LLQ | Mean plasma concentration at 1.0 hr [2, 8]: 1.91 ng/mL | Mean plasma concentration at 1.5 hr [2, 8]: 10.0 ng/mL | concentration at 0.67 h ([2]; mouse, plasma, oral, 10 mg/kg, Mean plasma concentration at 0.67 hr, mice, aqueous suspension, 10 mg/kg of free base, 0.67 hr): 1.46 ng/mL | concentration at 2 h ([2]; mouse, plasma, oral, 10 mg/kg, Mean plasma concentration at 2.0 hr, mice, aqueous suspension, 10 mg/kg of free base, 2.0 hr): 20.4 ng/mL | concentration at 4 h ([2]; mouse, plasma, oral, 10 mg/kg, Mean plasma concentration at 4.0 hr, mice, aqueous suspension, 10 mg/kg of free base, 4.0 hr): 46.9 ng/mL | Tmax ([2]; mouse, plasma, po, 10 mg/kg): 6 h | AUC(0-t) ([2]; mouse, plasma, po, 10 mg/kg, AUClast, mice, aqueous suspension, 10 mg/kg of free base, 6-hour study): 181 ng·h/mL | Cmax ([2]; mouse, plasma, po, 10 mg/kg, Cmax, mice, aqueous suspension): 56.3 ng/mL
Compound: CN1CCN(Cc2ccc(-c3cnc4[nH]cc(-c5ccc6[nH]ccc6c5)c4c3)cc2)CC1 [Compound 1, 3-(1H-indol-5-yl)-5-[4-[(4-methyl-1-piperazinyl)methyl]phenyl]-1H-pyrrolo[2,3-b]pyridine]
solubility in water / aqueous and organic carriers [3]: insoluble in water; also recorded: limited solubility in typical aqueous and organic carriers | solubility in methanol, ethanol or 95% ethanol ([1]; listed as free base): not very soluble in methanol, ethanol, or 95% ethanol at room temperature | pharmacokinetic properties and CNS penetration [4]: excellent pharmacokinetic properties and central nervous system (CNS) penetration

kinetic dissolution in water [5]: fastest to kinetically dissolve | AUClast [6]: 259 ng·h/mL | Cmax [6]: 66.9 ng/mL | Mean plasma concentration at 0.33 hr [6]: 4.24 ng/mL | Mean plasma concentration at 0.67 hr [6]: 8.2 ng/mL | Mean plasma concentration at 1.0 hr [6]: 15.2 ng/mL | Mean plasma concentration at 1.5 hr [6]: 31.4 ng/mL | Mean plasma concentration at 2.0 hr [6]: 38.8 ng/mL | Mean plasma concentration at 4.0 hr [6]: 63.4 ng/mL | Tmax [6]: 4.67 h
Compound: tartrate salt of 3-(1H-indol-5-yl)-5-[4-[(4-methyl-1-piperazinyl)methyl]phenyl]-1H-pyrrolo[2,3-b]pyridine
